Measured values: ChEMBL document CHEMBL1821602, “The Use of 3,5,4'-Tri-O-acetylresveratrol as a Potential Pro-drug for Resveratrol Protects Mice from γ-Irradiation-Induced Death” (ACS Med Chem Lett, 2011)
Activity calls are given as the source filed them. The rule behind the calls is not given here.

Key:
Mus musculus [1] = species: Mus musculus; test: Radioprotective activity against 0 to 7 Gy gamma radiation-induced death in mouse 32Dcl3 cells at 10 uM treated 1 hr prior to irradiation after 7 days by microscopy; type: functional, cell-based
[2] = Stability of the compound assessed as half life; type: physicochemical
Mus musculus [3] = test: Radioprotective activity against 9.75 Gy gamma radiation-induced death in C57BL/6NHsd mouse assessed as survival rate at 10 mg/kg, ip administered 10 mins prior to irradiation; type: functional
Mus musculus [4] = test: Radioprotective activity against 9.75 Gy gamma radiation-induced death in C57BL/6NHsd mouse assessed as increase in survival rate at 1 mg/kg, ip administered 10 mins prior to irradiation; type: functional, organism-based; parameters: dose 1 mg/kg
Mus musculus [5] = test: Radioprotective activity against 9.75 Gy gamma radiation-induced death in C57BL/6NHsd mouse assessed as increase in survival rate at 25 mg/kg, ip administered 10 mins after irradiation daily for 4 days; type: functional, organism-based; parameters: dose 25 mg/kg
Serum [6] = test: Metabolic stability in mouse serum up to 27 hrs by HPLC analysis; type: ADME, cell-free
Serum [7] = test: Metabolic stability in mouse serum assessed as hydrolysis to resveratrol with in 20 secs by HPLC analysis; type: ADME, cell-free; conditions: 20 s
[8] = Metabolic stability in mouse serum assessed as half life in presence of 1:1:8 mixture of EtOH/Cremophor EL/H2O by HPLC analysis; type: ADME, cell-free

For CCCOC(=O)c1cc(O)c(O)c(O)c1, the Activity (Mus musculus [1]) was “inactive”.

With O=C(O[C@@H]1Cc2c(O)cc(O)cc2O[C@H]1c1ccc(O)c(O)c1)c1cc(O)c(O)c(O)c1 the Activity (Mus musculus [1]) was “inactive”.

For Oc1ccc(/C=C/c2cc(O)cc(O)c2)cc1 [RESVERATROL], the Activity (Mus musculus [1]) was “Active”, the half-life [2] was 8 min and the Activity (Mus musculus [3]) was “inactive”. For the same molecule, the Activity (Mus musculus [4]) was “inactive”, the Activity (Mus musculus [5]) was “inactive” and the Stability (Serum [6]) was “Stable”.

With CC(=O)Oc1ccc(/C=C/c2cc(OC(C)=O)cc(OC(C)=O)c2)cc1 [TRIACETYLRESVERATROL] the Activity (Mus musculus [3]; route intraperitoneal) was 80%, the Activity (Mus musculus [4]) was “inactive” and the Activity (Mus musculus [5]) was “inactive”. For the same molecule, the Stability (Serum [7]) was “Unstable” and the half-life [8] was 48 min.
